The source made the active and inactive calls. No cut-off for these calls is given here.
Columns and labels:
[1] = target: 11-beta-hydroxysteroid dehydrogenase type 2 (Homo sapiens, UniProt P80365); test: Ability to convert [3H]cortisol to the tritium labeled cortisone in the presence of human 11 beta hydroxysteroid dehydrogenase type 2
[2] = target: 11-beta-hydroxysteroid dehydrogenase type 2 (Mus musculus) (UniProt P51661); test: Inhibitory activity against mouse 11 beta hydroxysteroid dehydrogenase type 2 at a concentration of 0.2 mM; NI means no inhibition
11-beta-hydroxysteroid dehydrogenase type 2 (Mus musculus), sequence (P51661 whole entry, looked up): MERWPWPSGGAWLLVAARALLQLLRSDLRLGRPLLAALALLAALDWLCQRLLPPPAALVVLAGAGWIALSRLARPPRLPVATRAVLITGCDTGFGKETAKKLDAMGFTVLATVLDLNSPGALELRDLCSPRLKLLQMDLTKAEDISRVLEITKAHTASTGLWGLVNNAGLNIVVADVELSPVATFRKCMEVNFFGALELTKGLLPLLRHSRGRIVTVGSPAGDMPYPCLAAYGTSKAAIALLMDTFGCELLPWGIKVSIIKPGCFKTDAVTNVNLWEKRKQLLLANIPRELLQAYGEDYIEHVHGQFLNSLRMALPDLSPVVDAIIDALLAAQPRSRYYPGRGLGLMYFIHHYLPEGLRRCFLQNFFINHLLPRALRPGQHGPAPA

[3] = target: T1, 11-beta-hydroxysteroid dehydrogenase 1 (Mus musculus, UniProt P50172); test: In vitro inhibitory activity against mouse 11 beta hydroxysteroid dehydrogenase type 1 using scintillation proximity assay (SPA)
[4] = target: T1, 11-beta-hydroxysteroid dehydrogenase 1; test: In vitro inhibitory activity against mouse 11 beta hydroxysteroid dehydrogenase type 1 using scintillation proximity assay (SPA).

11-beta-hydroxysteroid dehydrogenase type 2, sequence (P80365 whole entry, looked up): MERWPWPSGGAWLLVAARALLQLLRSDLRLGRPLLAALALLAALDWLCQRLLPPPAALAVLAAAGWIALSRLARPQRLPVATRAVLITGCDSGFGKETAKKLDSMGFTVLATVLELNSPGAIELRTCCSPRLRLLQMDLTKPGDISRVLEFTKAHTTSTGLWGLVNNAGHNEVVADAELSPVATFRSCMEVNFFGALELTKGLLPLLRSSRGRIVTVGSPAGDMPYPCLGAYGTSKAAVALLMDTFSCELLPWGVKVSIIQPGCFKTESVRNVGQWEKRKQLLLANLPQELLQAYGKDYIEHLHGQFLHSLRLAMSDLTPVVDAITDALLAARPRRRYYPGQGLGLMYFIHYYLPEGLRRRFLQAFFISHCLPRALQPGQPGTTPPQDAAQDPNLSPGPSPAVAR

## Cc1c(Cl)cccc1S(=O)(=O)Nc1nc(CC(=O)N2CCN(C)CC2)cs1
[1]
  IC50: > 10000 nM
[2]
  NI: inactive
[3]
  IC50: […]

## CCN(CC)C(=O)Cc1csc(NS(=O)(=O)c2cccc(Cl)c2C)n1
[1]
  IC50: > 10000 nM
[4]
  IC50: […]

— ChEMBL document CHEMBL1135754, “Arylsulfonamidothiazoles as a new class of potential antidiabetic drugs. Discovery of potent and selective inhibitors of the 11beta-hydroxysteroid dehydrogenase type 1” (J Med Chem, 2002)
